A short description of this series: gradient 5% acetonitrile 3 min, to 50% in 2 min, to 85% in 15 min, held 3 min, 100 µL/min. The conditions noted are these: column: Zorbax Extend-C18 2.1 x 50 mm; eluents: water / acetonitrile, 0.1% formic acid. Put shortly: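 Each retention time is based on an adduct peak selected computationally and verified by manual inspection. Measurements used HPLC–quadrupole time-of-flight mass spectrometry in positive and negative ionization mode on mixtures of ~100 pure standards. Chromatography ran on a Zorbax Extend-C18 column (2.1 × 50 mm, 1.8 μm) at 100 μL/min with water and acetonitrile, each containing 0.1% formic acid, and dead and dwell volumes of 40 μL and 900 μL.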
`CC1CCN(c2cc(-n3cnc(C(=O)N4CCN(c5ccccn5)CC4)c3)ncn2)CC1` came in with an RP-LC retention time of 675 s.

The molecule `CCCN(Cc1cccs1)C(=O)c1cc2c(=O)n(CCC)c3ccccc3n2n1` yielded an RP-LC retention time of 1140 s. In turn, `CNC(=O)c1c(NC(=O)c2ccc(C)cc2)sc2c1CCC2` had an RP-LC retention time of 1070 s. `Cc1nnc(NC(=O)Cn2cccn2)s1` displayed an RP-LC retention time of 562 s. Next, `CCc1onc(C)c1C1CCCN1C(=O)Nc1ccc(C)c(F)c1` (stereo not drawn): 879 s. For `COc1ccc(C2Nc3ccc(C)cc3[C@H]3OCCC[C@@H]23)cc1O` (stereo partly drawn), the RP-LC retention time was determined as 894 s. Take `COc1cccc(-c2noc(Cn3c(=O)n(-c4cccc(F)c4)c(=O)c4sccc43)n2)c1`: the RP-LC retention time worked out at 957 s. On to `O=C(CSc1cc(N2CCN(c3ccccc3F)CC2)ncn1)NC1CCCCC1`, for which the RP-LC retention time is 1050 s. Next, `CCOC(=O)c1[nH]c(C)c(CCC(=O)N2CCC(C(=O)NCc3ccccc3Cl)CC2)c1C`: 808 s; `Cc1ccc(N2C(=O)c3cccnc3C2CC(=O)N2CCN(c3ccccn3)CC2)cc1` (stereo not drawn): 579 s. The molecule `O=C1NCCCCCN(C(=O)c2ccco2)[C@@H]2C[C@@H](C(=O)N3CCc4ccccc4C3)C[C@H]12` came in with an RP-LC retention time of 752 s.

Take `COc1cc(OC)cc(C(=O)N2CCCC2c2nc(-c3cccc(C(F)(F)F)c3)no2)c1` (stereo not drawn): the RP-LC retention time stood at 1120 s.

`CCC(C(=O)NCCc1c[nH]c2ccc(Cl)cc12)n1c2ccccc2c2cnn(C)c(=O)c21` (stereo not drawn) displayed an RP-LC retention time of 986 s. Consider `O=C(CCC1CCCC1)N1CCN(C(=O)c2cc(-c3cccnc3)n[nH]2)CC1`, for which the RP-LC retention time worked out at 652 s.

In turn, `Cc1cnc(C2CN(Cc3cccnc3)C2)n1Cc1ccccc1` came in with an RP-LC retention time of 536 s. Consider `Cc1cc(NC(=O)CN2C(=O)NC(c3ccc(Cl)cc3)C3=C2COC3=O)ccc1Br` (stereo not drawn), for which the RP-LC retention time was determined as 873 s. In the case of `O=C(NCc1nc2cccnc2n1Cc1ccc(F)cc1)c1ccc(Br)o1`, the RP-LC retention time was 757 s. In turn, `CCN(CC)CCCNC(=O)C1CCCN(c2ncc(-c3ccc(F)cc3)cn2)C1` (stereo not drawn) gave an RP-LC retention time of 668 s. Turning to `N#CCn1cccc(S(=O)(=O)N2CCCCCC2)c1=O`, the RP-LC retention time was 737 s. Then `Cc1cc(C)n(-c2ccc(=O)n(CCNC(=O)CCn3cnc4ccccc4c3=O)n2)n1`, with 605 s.

Molecule `CCOc1ccc(CNC(=O)C2CCN(S(=O)(=O)c3cn(CC)cn3)CC2)cc1` registered an RP-LC retention time of 696 s.

In the case of `CCCNC(=O)Cn1c(CC)nc2ccccc21`, the RP-LC retention time came to 578 s.

`CCN1c2ccccc2C(=O)NC12CCN(C(=O)c1ccc(F)c(F)c1)CC2` returned an RP-LC retention time of 799 s. Next, `Cc1ccccc1Nc1c(-c2cccc(O)c2)nc2ccc(Br)cn12`: 727 s; `CCOc1ccc(CC(=O)N2CCCn3nc(-c4cccc(C)c4)cc3C2)cc1`: 968 s. `CN(C)C(=O)[C@@]12CCCC[C@H]1N(CCc1ccccc1)C(=O)CC2` gave an RP-LC retention time of 725 s. `CCn1cnc2ccc(-c3noc(CNC(=O)c4ccccc4)n3)cc21` came in with an RP-LC retention time of 620 s. As for `Cc1ccc(C)c(S(=O)(=O)N2CCN(c3ccc(-n4nc(C)c(C)c4C)nn3)CC2)c1`, the RP-LC retention time was 995 s. `O=C(CN1CCC2(CC1)N=C(c1ccc(Cl)cc1)C(=O)N2)Nc1ccc2c(c1)OCO2` gave an RP-LC retention time of 681 s.

For `CCCN1C(=O)COc2ccc(-c3noc(-c4ccc(OC)cc4)n3)cc21`, the RP-LC retention time is 1140 s.

`O=C(CCNc1cnc2cnccn12)NCc1ccc(F)c(Cl)c1` yielded an RP-LC retention time of 601 s.

With `CCc1nccn1Cc1nc(-c2cc(OC)c(OC)c(OC)c2)no1`, the RP-LC retention time came out at 621 s. `COc1ccccc1-c1nc(-c2ccc3ncn(C)c3c2)no1` gave an RP-LC retention time of 674 s.

`CC1CCCCC12NCCN=C2NCc1cccc(F)c1` (stereo not drawn) gave an RP-LC retention time of 640 s. Next, `O=C(C1=CN(c2cccc(F)c2)c2ccccc2S1(=O)=O)N1CCOCC1`: 730 s; `CCOC(=O)c1c(C)oc2nc(C)nc(NCC3CCN(Cc4ccc(F)cc4)CC3)c12`: 712 s. `Cc1nc2cc(-c3noc(-c4ccc(C#N)cc4)n3)ccc2n(C)c1=O` displayed an RP-LC retention time of 965 s. `O=C(Cn1ccnc1-c1ccnc(N2CCSCC2)c1)NCc1ccc(Cl)cc1` yielded an RP-LC retention time of 674 s. Molecule `COc1ccc(-c2nc(-c3cn(Cc4ccc(F)cc4)nn3)no2)c(OC)c1` gave an RP-LC retention time of 940 s. As to `COc1cc2c(cc1CNC(=O)Cn1cnc3cc4c(cc31)OCCO4)OCCCO2`, the RP-LC retention time was 629 s. Molecule `CC(C)(C)NC(=O)c1ccc2c(c1)CCCN2S(=O)(=O)c1ccccc1` yielded an RP-LC retention time of 979 s.

In turn, `O=C(NCCCN1CCCC1)c1nnc(-c2ccc(S(=O)(=O)N3CCCC3)cc2)o1` had an RP-LC retention time of 603 s.

In turn, `CCOc1ccc(NC(=O)N(C)CCc2noc(C3CCCCC3)n2)cc1` gave an RP-LC retention time of 942 s.
